Laboratory results: BigSolDB 2.1

Details: in water

O=C(O)CCCC(=O)O
Details	solubility (mole fraction)
288.05 K	0.125
292.95 K	0.151
297.85 K	0.176
303.25 K	0.204
308.05 K	0.232
312.95 K	0.26
318.05 K	0.297
322.25 K	0.328
326.75 K	0.361
330.85 K	0.4
